This note sets out measurements from ChEMBL document CHEMBL1201862, “PubChem BioAssay data set” (2004).

A short description of test [1]: viability of uninfected HEp-2 cells – cell-based, HTS, cytotoxicity control for RSV inhibitor project, dose response (AID 2410). Type of test: functional. Particulars: human respiratory syncytial virus.
A short description of test [2]: luciferase reporter signal suppression in cells – H4 neuroglioma cells, luminescence, dose response (AID 1990). The class given is functional, cell-based. For orientation: In a reporter assay the amount or activity of a reporter protein is the signal.
The nature of test [3]: Luminescence Cell-Based Dose Response HTS to Identify Inhibitors of 5'UTR Stem-Loop Driven Prion Protein mRNA Translation in H4 Neuroglioblastoma Cells. [Related pubchem assays: 1827 (Project Summary), 1813 (Primary HTS)]. The class given is functional.
Test [4] is described as follows: alpha-synuclein stem-loop luciferase translation blockers – H4 neuroglioma cells, luminescence, confirmation (AID 1988). Type of test: functional, cell-based.
Test [5] is described as follows: Trypanosoma cruzi growth suppression in host cells – NIH3T3 host cells, beta-gal luminescence, confirmation (AID 2044).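 Also: intracellular parasites grown in NIH/3T3 mouse fibroblasts as host cells; luminescent beta-galactosidase reporter signal from transgenic T. cruzi replicating inside host cells; inhibitors lower the luminescence signal.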 Type of test: functional, cell-based.
Test [6] is described as follows: NIH3T3 cell viability loss – ATP luminescence, mouse fibroblasts, counter-screen, dose response (AID 2010).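 Also: cells exposed to compound for about 90 hours before reading.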 Type of test: functional, cell-based. For orientation: A counterscreen serves to expose hits that act by an unwanted route or on another target.
A further test concerns INS1. The experiment in a line: INS-1E survival protection against cytokine death – cell-based, luminescence, retest, dose response (AID 449756).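 Also: cell death triggered by IL-1 beta plus TNF-alpha plus IFN-gamma mixture; protective hits raise ATP signal compared with cytokine alone wells.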 The class given is functional. The conditions noted are these: Rattus norvegicus.
For the next test, the target named is T1, Cytochrome P450 1A2 (Homo sapiens, UniProt P05177).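 Also: PubChem cytochrome P450 panel assay, CYP1A2 panel member.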
T1 sequence (P05177 whole entry): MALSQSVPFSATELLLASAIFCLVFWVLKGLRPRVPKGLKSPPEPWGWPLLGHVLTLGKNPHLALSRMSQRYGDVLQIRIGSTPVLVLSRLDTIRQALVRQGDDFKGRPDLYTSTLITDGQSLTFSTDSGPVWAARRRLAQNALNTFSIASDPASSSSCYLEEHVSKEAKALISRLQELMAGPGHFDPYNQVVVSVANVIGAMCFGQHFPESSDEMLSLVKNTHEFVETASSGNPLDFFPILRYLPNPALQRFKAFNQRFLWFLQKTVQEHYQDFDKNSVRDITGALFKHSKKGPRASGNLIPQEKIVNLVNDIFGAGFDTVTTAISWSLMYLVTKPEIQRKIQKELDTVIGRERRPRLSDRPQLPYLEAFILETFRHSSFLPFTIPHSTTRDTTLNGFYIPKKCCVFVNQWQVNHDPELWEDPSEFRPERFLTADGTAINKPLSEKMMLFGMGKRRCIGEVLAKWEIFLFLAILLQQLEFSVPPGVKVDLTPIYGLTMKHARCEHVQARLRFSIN

As usually defined, the CC50 is the concentration giving 50% cytotoxicity. As a reminder, the EC50 is the concentration at which the effect is half-maximal. The AC50 is the midpoint of the concentration-response curve, whichever way the signal moves.

Activity calls are given as the source filed them. Rule as the data show it, for most assays here: actives have a measured EC50 and inactives only a lower limit. Where only a bound is given, the exact number is not on record here.

Take `Cc1ccccc1C(=O)NC(=S)Nc1sc2c(c1C#N)CCCC2`: the 50% cytotoxic concentration (CC50) in test [1] is 25.9 µM (active).

`Cc1c(C(=O)NN2CCCCC2)nn(-c2ccc(Cl)cc2Cl)c1-c1ccc(I)cc1`: the EC50 is 11.3 µM (active) in test [2], > 120 µM (not active) in test [3] and 12.4 µM (active) in test [4].

As to `COc1ccc(-c2csc3ncnc(N4CCN(S(=O)(=O)c5ccc(C)c(C)c5)CC4)c23)cc1`, the concentration giving a half-maximal response (EC50) was 2.05 µM (active) in test [5] and 24.1 µM (active) in test [6].

Regarding `CCOc1ccccc1Nc1cc(C)nc2ccc(C)cc12`, the CC50 in test [1] is 26.1 µM (active). `COC(=O)c1ccc(CSc2ccc3nnc(-c4ccccc4)n3n2)o1`: the concentration for a half-maximal effect (EC50) was > 120 µM (not active) in test [2], 15.7 µM (active) in test [3] and 16.6 µM (active) in test [4]. For `CN1C/C(=C/c2ccsc2)C(=O)/C(=C/c2ccsc2)C1`, the EC50 was 0.156 µM (active) in test [5] and > 30 µM (not active) in test [6]. As for `Cc1cc(C(=O)CSc2nc3ccccc3c(=O)n2C)c(C)n1Cc1ccc2c(c1)OCO2`, the concentration at half-maximal activity (AC50) in the test with INS1 was 1.41 µM (active). Take `CCCc1cc(NCCCCO)n2c(nc3ccccc32)c1C#N`: the EC50 was 25.6 µM (active) in test [2], > 120 µM (not active) in test [3] and > 120 µM (not active) in test [4].

As to `CC(=O)N1CCc2cc(S(=O)(=O)NCCC3=CCCCC3)ccc21`, in the test with INS1, the half-maximal activity concentration (AC50) was 4.54 µM (active). Consider `CCCCN1CC(=O)C(c2nc(-c3ccc(Cl)cc3)cs2)=C1N`, for which the half-maximal effective concentration (EC50) in test [2], in test [3] and in test [4] was > 120 µM (not active) throughout.

Regarding `COc1ccc(CN2CCN(Cc3cc4ccccc4o3)CC2CCO)cc1C` (stereo not drawn), the EC50 in test [5] was 0.306 µM (active); in test [6], > 60 µM (not active).

As for `Cn1c(=O)[nH]c(=O)c2c1nc(N1CCCCCC1)n2Cc1cccc2ccccc12`, the values for the EC50 in test [2], in test [3] and in test [4] were 24.4 µM (active), > 120 µM (not active) and 45 µM (active), respectively. Turning to `Cc1ccn2cc(-c3cccc(S(=O)(=O)N4CC(C)OC(C)C4)c3)nc2c1` (stereo not drawn), in test [1], the CC50 is > 50 µM (active). On to `OC[C@H]1O[C@H](n2cnc3c(NC4CCCC4)nc(Cl)nc32)[C@@H](O)[C@@H]1O`, for which, on Cytochrome P450 1A2, the half-maximal activity concentration (AC50) was 39.8 µM (inconclusive). Turning to `CCOC(=O)C1(CCOc2ccccc2)CCN(Cc2ccc3nonc3c2)CC1`, the half-maximal effective concentration (EC50) in test [5] is 2.61 µM (active); in test [6], > 60 µM (not active). For the compound `O=C(O)CCC(=O)Nc1ccc2ccccc2c1`, at Cytochrome P450 1A2, the AC50 was 0.0631 µM (inconclusive).

`Cc1ccc(N2CCN(C(=O)c3nn(C)c4c3CS(=O)(=O)c3ccccc3-4)CC2)c(C)c1`: in test [1], the CC50 is 10.3 µM (active).

Take `Nc1ccccc1C(=O)Nc1ccc(Cl)cc1Cl`: the CC50 in test [1] was 35.7 µM (active). As for `Cc1ccc(C)c(OCCCC(C)(C)C(=O)O)c1` [GEMFIBROZIL], the concentration at half-maximal activity (AC50) at Cytochrome P450 1A2 was 12.6 µM (inconclusive).

Take `COc1ccccc1Cn1nnc2c(O)nc(C3CCN(C(=O)c4ccccc4Cl)CC3)nc21`: the figures for the concentration giving a half-maximal response (EC50) in test [2], in test [3] and in test [4] were > 120 µM (not active), > 120 µM (not active) and 68.6 µM (active), respectively.

As for `CCC(C)c1ccc(-c2cc(C(=O)OCC(=O)Nc3cc(C)on3)c3ccccc3n2)cc1` (stereo not drawn), in test [1], the CC50 was 43.8 µM (active).

With `O=C(NCc1ccccc1)c1ccc(C(=O)N(C2CCCCC2)C2CCCCC2)cc1`, the EC50 in test [5] is 2.27 µM (active); in test [6], > 60 µM (inconclusive).

In the case of `CSCc1cc(N2CCOCC2)nc(SCc2ccc(Cl)c(Cl)c2)n1`, the cytotoxic concentration (CC50) in test [1] was 26.1 µM (active). For the compound `CCCN1CCC(=NNc2ccc(S(=O)(=O)N(CC)CC)cc2[N+](=O)[O-])CC1`, the EC50 in test [2] was 16.5 µM (active); in test [3], > 120 µM (not active); in test [4], 8.05 µM (active). `O=C(/C=C/c1ccccc1)Nc1ccc2c(c1)OCCO2`: the values for the EC50 in test [2], in test [3] and in test [4] were 10.7 µM (inconclusive), 10.4 µM (inconclusive) and 9.98 µM (inconclusive), respectively. Regarding `Cc1ccc(C2CC(c3cccc(C)c3)n3nc(N)nc3N2)cc1` (stereo not drawn), the AC50 in the test on INS1 is > 260 µM (inactive). On to `COc1ccccc1NS(=O)(=O)c1cccc(NC(=O)c2sc3ccccc3c2Cl)c1`, for which the results for the EC50 in test [5] and in test [6] were 1.19 µM (active) and > 60 µM (not active), respectively. For the compound `CCOc1cc(/C=C(\C#N)C(=O)Nc2cccc(C(=O)O)c2)ccc1OCc1ccccc1Cl`, the cytotoxic concentration (CC50) in test [1] is 29.9 µM (active).

On to `CCOC(=O)c1cccc(-c2c(-c3ccccc3)ncc3cc(OC)c(OC)cc23)c1`, for which, in test [1], the CC50 was 20.4 µM (active). For the compound `Cc1ccc(-c2nnc(N3CCCCCC3)c3ccccc23)cc1`, the concentration for a half-maximal effect (EC50) in test [5] is 1.19 µM (active); in test [6] it was > 60 µM (not active). For `O=C(N/N=C\c1cn(-c2ccccc2)nc1-c1ccccc1)c1ccc2c(c1)OCO2`, on Cytochrome P450 1A2, the AC50 is 3.55 µM (inconclusive).

Turning to `CCCOc1ccc([N+](=O)[O-])cc1C1NC(S)=NC(c2ccccc2)=C1C(=O)OCC` (stereo not drawn), the 50% cytotoxic concentration (CC50) in test [1] was 40.5 µM (active). As to `O=c1n(Cc2ccccc2F)c2ccccc2n1Cc1ccccc1F`, the results for the EC50 in test [2], in test [3] and in test [4] were 22 µM (active), > 120 µM (not active) and > 120 µM (not active), respectively.

On to `Cc1ccc(Cn2nnc3c(O)nc(C4CCN(S(=O)(=O)Cc5ccccc5)CC4)nc32)cc1`, for which the 50% cytotoxic concentration (CC50) in test [1] is 26.8 µM (active). In the case of `COc1ccc(NC(=O)/C(C#N)=C/c2cc(C)n(-c3ccc(N4CCOCC4)c([N+](=O)[O-])c3)c2C)cc1`, the concentration for a half-maximal effect (EC50) in test [2] was > 120 µM (not active); in test [3] it was 35.2 µM (active); in test [4] it was > 120 µM (not active). As for `Cc1ccc(-c2cc(C(F)F)n3ncc(C(=O)N4CCc5ccccc5C4)c3n2)cc1`, the EC50 in test [5] is 1.72 µM (active); in test [6], > 60 µM (not active).

As for `O=C(/C=C/c1ccccc1)NC(NC(=S)Nc1ccc(Cl)cc1Cl)C(Cl)(Cl)Cl` (stereo not drawn), the concentration for a half-maximal effect (EC50) was 2.02 µM (active) in test [5] and > 60 µM (not active) in test [6]. As to `Cc1nc2ccccc2c(=O)n1-c1cc([N+](=O)[O-])cc([N+](=O)[O-])c1`, the concentration giving a half-maximal response (EC50) in test [5] was 1.98 µM (active); in test [6] it was > 60 µM (not active).

As to `Cc1ccc(Nc2nnc(-c3ccc(N4CCOCC4)c([N+](=O)[O-])c3)c3ccccc23)cc1`, the CC50 in test [1] was 10.8 µM (active).

Consider `N[C@](CC1c2ccccc2Oc2ccccc21)(C(=O)O)[C@@H]1C[C@@H]1C(=O)O`, for which the half-maximal activity concentration (AC50) at Cytochrome P450 1A2 was 31.6 µM (inconclusive). As to `O=C(c1csnn1)N1CCC[C@@]2(CCN(c3ncccn3)C2)C1`, the AC50 on Cytochrome P450 1A2 is 12.6 µM (inconclusive). In the case of `COc1ccc(-c2cc(C(F)F)n3ncc(C(=O)N4CCCCC4)c3n2)cc1`, the 50% cytotoxic concentration (CC50) in test [1] was > 50 µM (active). In addition, the EC50 in test [5] was 1.25 µM (active); in test [6] it was > 60 µM (not active). `COc1ccc(C2=NN(C(=O)COc3ncnc4ccccc34)C(c3ccco3)C2)cc1` (stereo not drawn): the 50% effective concentration (EC50) in test [2] is 13.8 µM (active); in test [3], > 120 µM (not active); in test [4], > 60 µM (not active). Take `COc1ccccc1N1CCN(C(CNC(=O)Oc2ccccc2)c2cccnc2)CC1` (stereo not drawn): the concentration giving a half-maximal response (EC50) in test [5] was 5.42 µM (active); in test [6], > 60 µM (not active). Regarding `COc1ccccc1N1CCN(S(=O)(=O)CCNC(=O)C2CC(=O)N(c3ccccc3)C2)CC1` (stereo not drawn), the figures for the concentration giving a half-maximal response (EC50) in test [2], in test [3] and in test [4] were > 120 µM (not active), > 120 µM (not active) and 114 µM (active), respectively.

With `CN(C)CCN(C(=O)c1ccc(S(=O)(=O)N(C)c2ccccc2)cc1)c1nc2ccc(Cl)cc2s1`, the EC50 is 0.117 µM (active) in test [5] and > 15 µM (not active) in test [6]. As for `CC(=O)N(C(C)=O)c1[nH]cc2c3ccccc3nc-2c1C#N`, the half-maximal effective concentration (EC50) in test [2] is 9.63 µM (active); in test [3] it was 12.9 µM (active); in test [4], 15.7 µM (active). For the compound `CC(C)(C)c1ccc(C(=O)Nc2ccc(S(=O)(=O)Nc3cnc4ccccc4n3)cc2)cc1`, in test [1], the cytotoxic concentration (CC50) was 8.3 µM (active). Regarding `CCC(C)Sc1nc2c(c(=O)[nH]c(=O)n2C)n1C` (stereo not drawn), the 50% cytotoxic concentration (CC50) in test [1] was 20.8 µM (active).

Regarding `COC(=O)C1CCC(C)(C(=O)Nc2ccccc2)C1(C)C` (stereo not drawn), on Cytochrome P450 1A2, the AC50 was 15.8 µM (inconclusive). Turning to `COC(=O)[C@@]1(Cc2ccccc2)[C@H]2c3cc(C(=O)N4CCCC4)[nH]c3C[C@H]2CN1C(=O)c1ccccc1`, the half-maximal activity concentration (AC50) at Cytochrome P450 1A2 is 1.26 µM (inconclusive). `Cc1cc(Cl)ccc1OCCCC(=O)NC1CCN(C)CC1`: the concentration giving a half-maximal response (EC50) in test [5] was 0.164 µM (active); in test [6] it was > 60 µM (not active).
